How the values were obtained:
[1] = biological target: T1, Enterobacter cloacae lectin A (EclA) (Enterobacter cloacae, UniProt A0A0H3CQ33); experiment: competitive fluorescence polarization displacement of […]; format: binding; design: gene ECL_04191; full-length EclA and EclA-C (amino acids 140–283)
[2] = biological target: T1, Enterobacter cloacae lectin A (EclA); experiment: competitive fluorescence polarization; thermal shift (Tm […] to […] °C); format: binding; design: gene ECL_04191; full-length EclA and EclA-C (amino acids 140–283)
[3] = biological target: the molecule itself; experiment: dynamic light scattering; Zetasizer Nano-ZS; 100 uM EclA-L or 200 uM EclA-N-tag and EclA-C in TBS/Ca (20 mM Tris, 137 mM NaCl, 2.6 mM KCl, pH 7.4, 1 mM CaCl2), 25 C; molecular weight estimated from the hydrodynamic radius

T1 sequence (A0A0H3CQ33 entry or part of it): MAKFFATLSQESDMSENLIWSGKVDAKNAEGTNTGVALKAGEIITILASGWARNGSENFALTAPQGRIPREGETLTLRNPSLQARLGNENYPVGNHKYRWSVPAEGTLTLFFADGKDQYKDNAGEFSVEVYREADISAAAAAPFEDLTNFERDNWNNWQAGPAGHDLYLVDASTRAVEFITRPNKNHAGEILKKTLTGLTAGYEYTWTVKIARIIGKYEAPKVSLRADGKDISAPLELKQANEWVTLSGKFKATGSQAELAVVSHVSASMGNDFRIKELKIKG

CO[C@H]1O[C@@H](C)[C@@H](O)[C@@H](O)[C@@H]1O [compound 13, methyl β-L-fucoside]
IC50 [1]: 1.5 to 1.8 mM

CO[C@@H]1O[C@@H](C)[C@@H](O)[C@@H](O)[C@@H]1O [compound 12, methyl α-L-fucoside]
IC50 [1]: 1.3 to 1.4 mM

C[C@@H]1OC(O)[C@@H](O)[C@H](O)[C@@H]1O (stereo partly drawn) [compound 1, L-fucose]
IC50 [2]: 4 to 4.7 mM

B1: EclA-L (EclA-M14A), full-length Enterobacter cloacae lectin A with the second start codon mutated (natural protein)
chain: MAKFFATLSQESDASENLIWSGKVDAKNAEGTNTGVALKAGEIITILASGWARNGSENFALTAPQGRIPREGETLTLRNPSLQARLGNENYPVGNHKYRWSVPAEGTLTLFFADGKDQYKDNAGEFSVEVYREADISAAAAAPFEDLTNFERDNWNNWQAGPAGHDLYLVDASTRAVEFITRPNKNHAGEILKKTLTGLTAGYEYTWTVKIARIIGKYEAPKVSLRADGKDISAPLELKQANEWVTLSGKFKATGSQAELAVVSHVSASMGNDFRIKELKIKG
notes: EclA (Enterobacter cloacae lectin A), E. cloacae subsp. cloacae ATCC 13047, ECL_04191, 283 aa, with M14A; Tag-free, pET22b; Made to have one protein species only (second ATG at codon 14 removed); also called EclA-L (M14A); source: E. coli, expressed and purified as reported for EclA
stoichiometry N [3]: 2

B2: EclA-N-tag, N-terminally His6-tagged EclA N terminus (amino acids 2-140) (domain or fragment)
chain: AKFFATLSQESDASENLIWSGKVDAKNAEGTNTGVALKAGEIITILASGWARNGSENFALTAPQGRIPREGETLTLRNPSLQARLGNENYPVGNHKYRWSVPAEGTLTLFFADGKDQYKDNAGEFSVEVYREADISAAA
notes: EclA, E. cloacae subsp. cloacae ATCC 13047, residues 2-140, based on EclA-L (M14A); also called N-terminal domain of EclA; not shown: His6, N-terminal, kept
stoichiometry N [3]: 2

B3: EclA-C, native EclA C terminus (amino acids 140-283) (domain or fragment)
chain: MAAPFEDLTNFERDNWNNWQAGPAGHDLYLVDASTRAVEFITRPNKNHAGEILKKTLTGLTAGYEYTWTVKIARIIGKYEAPKVSLRADGKDISAPLELKQANEWVTLSGKFKATGSQAELAVVSHVSASMGNDFRIKELKIKG
notes: EclA, E. cloacae subsp. cloacae ATCC 13047, stated as amino acids 140-283 (144 aa); Tag-free; a selenomethionine-labelled form was also crystallised; also called C-terminal domain of EclA; source: E. coli BL21(DE3), purified (fucose-coupled sepharose, L-fucose elution)
stoichiometry N [3]: 2
